From patent US11912701B2, “Protein kinase inhibitors for promoting liver regeneration or reducing or preventing hepatocyte death” (HEPAREGENIX GMBH, priority 2018, dated 2024)

How the values were obtained:
MKK4 [1] = target: T1, MKK4 (Homo sapiens, UniProt P45985); experiment: KINOMEscan competition binding assay, MKK4; conditions: residual percent of control binding (PoC) at 100 nM
T1 construct: S84/D399; host or cells: HEK-293
T1 sequence (P45985 84-399): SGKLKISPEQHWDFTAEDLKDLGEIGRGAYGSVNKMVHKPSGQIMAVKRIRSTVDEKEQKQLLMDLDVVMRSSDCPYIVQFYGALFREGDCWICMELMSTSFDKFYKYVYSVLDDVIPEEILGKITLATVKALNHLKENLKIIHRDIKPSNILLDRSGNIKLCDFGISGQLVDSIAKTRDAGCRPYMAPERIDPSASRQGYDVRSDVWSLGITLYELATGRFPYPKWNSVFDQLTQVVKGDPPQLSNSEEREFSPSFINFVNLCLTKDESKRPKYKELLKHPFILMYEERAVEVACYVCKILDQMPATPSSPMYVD
In short: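 Tested at 100 nM and reported as percent of control binding (PoC). MKK4 was produced in HEK-293 cells and DNA-tagged. Displacement from ligand-coated, blocked beads was read by qPCR of eluted kinase.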

BRaf [2] = target: T2, BRaf (Homo sapiens, UniProt P15056); experiment: KINOMEscan competition binding assay, BRaf; conditions: ratio PoC (off-target)/PoC (MKK4)
T2 construct: purchased ProQinase GmbH, Freiburg, Germany (33PanQinase Assay Service)
T2 sequence (P15056 whole entry, species assumed): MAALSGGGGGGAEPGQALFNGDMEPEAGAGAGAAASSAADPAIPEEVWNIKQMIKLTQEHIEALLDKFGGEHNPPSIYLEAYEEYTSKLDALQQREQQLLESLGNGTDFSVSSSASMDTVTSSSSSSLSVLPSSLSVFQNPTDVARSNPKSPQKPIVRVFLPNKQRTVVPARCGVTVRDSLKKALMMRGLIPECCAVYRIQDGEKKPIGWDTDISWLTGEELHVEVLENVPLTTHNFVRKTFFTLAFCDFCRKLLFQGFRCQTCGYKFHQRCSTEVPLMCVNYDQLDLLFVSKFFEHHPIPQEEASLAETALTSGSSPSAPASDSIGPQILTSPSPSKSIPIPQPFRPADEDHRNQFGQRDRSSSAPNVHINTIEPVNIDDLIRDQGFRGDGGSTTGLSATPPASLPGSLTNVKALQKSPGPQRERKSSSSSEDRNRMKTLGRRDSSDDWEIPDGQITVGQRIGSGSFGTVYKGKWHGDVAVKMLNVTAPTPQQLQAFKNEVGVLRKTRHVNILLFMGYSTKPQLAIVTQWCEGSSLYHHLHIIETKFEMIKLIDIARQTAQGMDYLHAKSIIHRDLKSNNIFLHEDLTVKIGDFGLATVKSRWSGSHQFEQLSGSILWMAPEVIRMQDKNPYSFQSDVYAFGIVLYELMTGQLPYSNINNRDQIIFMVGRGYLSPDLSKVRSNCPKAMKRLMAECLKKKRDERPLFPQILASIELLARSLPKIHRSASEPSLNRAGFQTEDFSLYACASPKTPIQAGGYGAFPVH
In short: (§1)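 DNA-tagged kinases expressed in HEK-293 cells compete between immobilized ligand on blocked beads and test compound at 100 nM; kinase retained on beads quantified by qPCR of the tag.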

MKK4 [3] = target: T3, MKK4 (Homo sapiens, UniProt P45985); experiment: 33PanQinase enzyme assay, MKK4; assay type: biochemical; conditions: assay 'IC50'; read-out: Potency MKK4 (IC50)
T3 construct: purchased ProQinase GmbH, Freiburg, Germany (33PanQinase Assay Service)
T3 sequence (P45985 1-399): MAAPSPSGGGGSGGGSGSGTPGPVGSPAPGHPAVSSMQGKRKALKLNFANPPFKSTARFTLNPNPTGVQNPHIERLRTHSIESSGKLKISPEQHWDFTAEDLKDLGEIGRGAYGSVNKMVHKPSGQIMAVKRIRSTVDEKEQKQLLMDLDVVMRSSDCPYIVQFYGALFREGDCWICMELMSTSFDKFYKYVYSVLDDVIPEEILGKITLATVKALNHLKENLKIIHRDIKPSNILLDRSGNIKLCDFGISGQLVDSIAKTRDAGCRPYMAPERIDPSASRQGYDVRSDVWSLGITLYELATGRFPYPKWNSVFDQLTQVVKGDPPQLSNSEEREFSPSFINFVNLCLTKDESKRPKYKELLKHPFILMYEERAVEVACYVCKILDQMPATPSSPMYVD
In short: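 Inhibition measured as 33Pi transfer to substrate after a 60-min, 30 °C reaction, acid-stopped and scintillation-counted.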

BRaf [4] = target: T2, BRaf; experiment: 33PanQinase enzyme assay, BRaf; assay type: biochemical; conditions: ratio IC50(BRaf)/IC50(MKK4)
In short: (§2)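 Off-target selectivity is the ratio IC50(off-target)/IC50(MKK4), with IC50 values from least-squares fitting and single-point data as % residual activity. Reactions of enzyme/substrate mix, ATP and compound ran 60 min at 30° C before H3PO4 stop; ^33P incorporation read on a scintillation counter.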

MKK7 [5] = target: T4, MKK7 (Homo sapiens, UniProt O14733); experiment: KINOMEscan competition binding assay, MKK7; parameters: M1/R419; host or cells: HEK-293; conditions: ratio PoC (off-target)/PoC (MKK4)
T4 sequence (O14733 1-419): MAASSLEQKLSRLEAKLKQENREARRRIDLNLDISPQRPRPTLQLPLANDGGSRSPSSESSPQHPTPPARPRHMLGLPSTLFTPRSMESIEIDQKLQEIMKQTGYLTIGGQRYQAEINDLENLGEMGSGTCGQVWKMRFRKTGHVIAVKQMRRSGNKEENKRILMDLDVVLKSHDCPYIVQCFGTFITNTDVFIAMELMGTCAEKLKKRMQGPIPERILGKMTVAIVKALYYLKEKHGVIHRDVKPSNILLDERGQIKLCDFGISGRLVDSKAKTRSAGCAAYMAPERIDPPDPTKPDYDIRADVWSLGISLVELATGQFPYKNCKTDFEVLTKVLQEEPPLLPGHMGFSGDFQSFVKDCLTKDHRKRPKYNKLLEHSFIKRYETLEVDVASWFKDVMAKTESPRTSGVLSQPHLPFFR
In short: as §1

JNK1 [6] = target: T5, JNK1 (Homo sapiens, UniProt P45983); experiment: KINOMEscan competition binding assay, JNK1; parameters: M1/Q384; host or cells: HEK-293; conditions: ratio PoC (off-target)/PoC (MKK4)
In short: as §1
Target sequence in this assay (P45983 1-384 isoform P45983-2): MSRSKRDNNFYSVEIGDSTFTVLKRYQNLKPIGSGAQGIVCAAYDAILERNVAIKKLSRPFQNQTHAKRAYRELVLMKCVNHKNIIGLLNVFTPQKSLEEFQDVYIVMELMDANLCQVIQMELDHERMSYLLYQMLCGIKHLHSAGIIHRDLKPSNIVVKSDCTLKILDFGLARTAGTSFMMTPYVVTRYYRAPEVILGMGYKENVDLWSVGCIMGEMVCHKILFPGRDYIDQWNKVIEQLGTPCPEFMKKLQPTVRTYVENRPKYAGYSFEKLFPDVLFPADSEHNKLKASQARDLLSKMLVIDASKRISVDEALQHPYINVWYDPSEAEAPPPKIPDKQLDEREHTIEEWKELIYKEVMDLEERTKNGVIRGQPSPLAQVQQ

JNK1 [7] = target: T5, JNK1; experiment: 33PanQinase enzyme assay, JNK1; assay type: biochemical; parameters: purchased ProQinase GmbH, Freiburg, Germany (33PanQinase Assay Service); conditions: ratio IC50(JNK1)/IC50(MKK4)
In short: as §2
Target sequence in this assay (P45983 whole entry): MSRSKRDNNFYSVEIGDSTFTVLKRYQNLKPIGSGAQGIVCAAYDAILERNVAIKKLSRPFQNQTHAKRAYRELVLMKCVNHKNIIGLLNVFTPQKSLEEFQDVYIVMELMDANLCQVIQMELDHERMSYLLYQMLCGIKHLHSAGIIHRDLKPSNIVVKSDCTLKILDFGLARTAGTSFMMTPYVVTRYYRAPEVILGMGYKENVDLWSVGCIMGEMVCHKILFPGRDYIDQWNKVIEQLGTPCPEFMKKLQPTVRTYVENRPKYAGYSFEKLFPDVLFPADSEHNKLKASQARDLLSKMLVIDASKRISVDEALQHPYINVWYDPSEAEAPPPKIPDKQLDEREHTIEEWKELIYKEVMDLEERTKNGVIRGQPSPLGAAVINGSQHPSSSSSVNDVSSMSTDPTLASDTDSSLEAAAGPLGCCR

MKK7 [8] = target: T4, MKK7; experiment: 33PanQinase enzyme assay, MKK7; assay type: biochemical; parameters: purchased ProQinase GmbH, Freiburg, Germany (33PanQinase Assay Service); conditions: ratio IC50(MKK7)/IC50(MKK4)
In short: as §2

SMILES | MKK4 [% Ctrl @ 100 nM (MKK4 [1]) | selectivity based on % Ctrl @100 nM vs. Braf (BRaf [2]) | IC50 (MKK4 [3]) [nM] | Selectivity Braf, IC50(off-target)/IC50(MKK4) (BRaf [4]) | selectivity based on % Ctrl @100 nM vs. MKK7 (MKK7 [5]) | selectivity based on % Ctrl @100 nM vs. JNK1 (JNK1 [6]) | Selectivity JNK1, IC50(off-target)/IC50(MKK4) (JNK1 [7]) | Selectivity IVIKK7, IC50(off-target)/IC50(MKK4) (MKK7 [8])
CCCS(=O)(=O)Nc1c(F)ccc(C(=O)c2c[nH]c3ncc(-c4cnc(C(F)(F)F)nc4)cc23)c1F [Example 184, N-(2,6-difluoro-3-(5-(2-(trifluoromethyl)pyrimidin-5-yl)-1H-pyrrolo[2,3-b]pyridine-3-carbonyl)phenyl)propane-1-sulfonamide] | +++ (PoC < 1) | +++ (Ratio > 100) | 100 to 1000 | +++ (IC50(off-target)/IC50(MKK4) > 100) | +++ (Ratio > 100) | +++ (Ratio > 100) | ++ (100 ≥ IC50(off-target)/IC50(MKK4) > 10) | +++ (IC50(off-target)/IC50(MKK4) > 100)
CCCS(=O)(=O)Nc1c(F)ccc(C(=O)c2c[nH]c3ncc(-c4ccc(NC)nc4)cc23)c1F [Example 160, N-(2,6-difluoro-3-(5-(6-(methylamino)pyridin-3-yl)-1H-pyrrolo[2,3-b]pyridine-3-carbonyl)phenyl)propane-1-sulfonamide] | +++ (PoC < 1) | +++ (Ratio > 100) | < 100 | ++ (100 ≥ IC50(off-target)/IC50(MKK4) > 10) | +++ (Ratio > 100) | +++ (Ratio > 100) | ++ (100 ≥ IC50(off-target)/IC50(MKK4) > 10) | +++ (IC50(off-target)/IC50(MKK4) > 100)
O=C(c1ccc(F)c(NS(=O)(=O)CCC(F)(F)F)c1F)c1c[nH]c2ncc(-c3cnc(N4CCCC4)nc3)cc12 [Example 179, N-(2,6-difluoro-3-(5-(2-(pyrrolidin-1-yl)pyrimidin-5-yl)-1H-pyrrolo[2,3-b]pyridine-3-carbonyl)phenyl)-3,3,3-trifluoropropane-1-sulfonamide] | +++ (PoC < 1) | +++ (Ratio > 100) | < 100 | +++ (IC50(off-target)/IC50(MKK4) > 100) | +++ (Ratio > 100) | +++ (Ratio > 100) | +++ (IC50(off-target)/IC50(MKK4) > 100) | +++ (IC50(off-target)/IC50(MKK4) > 100)
